Columns and labels:
Assay type in all cases: in vivo
Thrips tabaci = Thrips tabaci (onion thrips): feeding/contact activity; conditions: 144 h, application rate 200 ppm, Thrips population of mixed ages, 6 days after infestation, read-out: mortality
Description: (§1) Sunflower leaf discs were placed on agar in 24-well microtiter plates and sprayed with aqueous test solutions prepared from 10'000 ppm DMSO stock solutions. After drying the leaf discs were infested with a Thrips population of mixed ages. The samples were assessed for mortality 6 days after infestation.

Euschistus heros = Euschistus heros (neotropical brown stink bug), sprayed soybean leaves; conditions: 120 h, application rate 200 ppm, N2 nymphs, 5 days after infestation, read-out: effect in at least one of the two categories (mortality or growth inhibition)
How it was run: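 Scored 5 days post-infestation versus untreated controls, for both mortality and growth inhibition: N2 nymphs placed on agar-mounted soybean leaves previously sprayed at 200 ppm with aqueous test solutions from DMSO stocks and left to dry.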

Diabrotica balteata = Diabrotica balteata (corn root worm), sprayed maize sprouts; conditions: 96 h, application rate 200 ppm, L2 larvae, 4 days after infestation, read-out: effect in at least one of the two categories (mortality or growth inhibition)
How it was run: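 Read-out at 4 days post-infestation: mortality and growth inhibition relative to untreated samples. Test solutions (200 ppm, from DMSO stocks) were sprayed onto agar-held maize sprouts, which after drying received 6–10 L2 larvae per well.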

Tetranychus urticae = Tetranychus urticae (two-spotted spider mite): feeding/contact activity; conditions: 192 h, application rate 200 ppm, mixed population (mobile stages), 8 days after infestation, read-out: mortality
Description: as §1, with “Bean” for “Sunflower”, “discs” for “discs were placed”, “were” for “and”, “mite” for “Thrips”, “on mixed population (mobile stages) 8” for “6”

Spodoptera littoralis = Spodoptera littoralis (Egyptian cotton leaf worm), sprayed cotton leaf discs; conditions: foliar, 72 h, application rate 200 ppm, L1 larvae, 3 days after infestation, read-out: control (mortality, anti-feeding effect, growth inhibition)
How it was run: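 Five first-instar larvae placed on dried cotton leaf discs (on agar) previously sprayed with aqueous dilutions of 10'000 ppm DMSO stocks. Scored at 3 days against untreated discs for mortality, feeding inhibition and growth inhibition; any category above untreated counts as control.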

Myzus persicae = Myzus persicae (green peach aphid): feeding/contact activity; conditions: 144 h, application rate 200 ppm, aphid population of mixed ages, 6 days after infestation, read-out: mortality
Description: Sunflower leaf discs were placed onto agar in a 24-well microtiter plate and sprayed with aqueous test solutions prepared from 10'000 ppm DMSO stock solutions. After drying, the leaf discs were infested with an aphid population of mixed ages. The samples were assessed for mortality 6 days after infestation.

Plutella xylostella = Plutella xylostella (diamond back moth), artificial diet; conditions: 120 h, application rate 200 ppm, L2 larvae, 5 days after infestation, read-out: effect in at least one of the two categories (mortality or growth inhibition)
How it was run: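 L2 larvae (10-15 per well) fed on compound-treated, dried artificial diet; test solutions diluted in water from 10'000 ppm DMSO stocks. Readout 5 days post-infestation as mortality or growth inhibition versus untreated diet, with at least 80% effect at 200 ppm as threshold.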

CCCCN(C)S(=O)(=O)N1CC(NC(=O)c2ccc(C3=NO[C@@](c4cc(Cl)c(Cl)c(Cl)c4)(C(F)(F)F)C3)cc2C)CO1 (stereo partly drawn) [Compound A85, N-[2-[butyl(methyl)sulfamoyl]isoxazolidin-4-yl]-2-methyl-4-[(5S)-5-(3,4,5-trichlorophenyl)-5-(trifluoromethyl)-4H-isoxazol-3-yl]benzamide]
≥ 80%: mortality at 200 ppm (Thrips tabaci) | percent effect (mortality or growth inhibition) at 200 ppm (Euschistus heros) | percent effect (mortality or growth inhibition) at 200 ppm (Diabrotica balteata) | mortality at 200 ppm (Tetranychus urticae) | mortality at 200 ppm (Spodoptera littoralis) | mortality at 200 ppm (Myzus persicae) | percent effect (mortality or growth inhibition) at 200 ppm (Plutella xylostella)

Cc1cc(C2=NO[C@@](c3cc(Cl)c(Cl)c(Cl)c3)(C(F)(F)F)C2)ccc1C(=O)NC1CON(S(=O)(=O)N(C)Cc2ccccc2)C1 (stereo partly drawn) [Compound A86, N-[2-[benzyl(methyl)sulfamoyl]isoxazolidin-4-yl]-2-methyl-4-[(5S)-5-(3,4,5-trichlorophenyl)-5-(trifluoromethyl)-4H-isoxazol-3-yl]benzamide]
≥ 80%: mortality at 200 ppm (Thrips tabaci) | percent effect (mortality or growth inhibition) at 200 ppm (Euschistus heros) | percent effect (mortality or growth inhibition) at 200 ppm (Diabrotica balteata) | mortality at 200 ppm (Tetranychus urticae) | mortality at 200 ppm (Spodoptera littoralis) | mortality at 200 ppm (Myzus persicae) | percent effect (mortality or growth inhibition) at 200 ppm (Plutella xylostella)

Cc1cc(C2=NO[C@@](c3ccc(F)c(C(F)(F)F)c3)(C(F)(F)F)C2)ccc1C(=O)N[C@H]1CON(S(C)(=O)=O)C1 [Compound A183]
≥ 80%: mortality at 200 ppm (Thrips tabaci) | percent effect (mortality or growth inhibition) at 200 ppm (Euschistus heros) | percent effect (mortality or growth inhibition) at 200 ppm (Diabrotica balteata) | mortality at 200 ppm (Tetranychus urticae) | mortality at 200 ppm (Spodoptera littoralis) | mortality at 200 ppm (Myzus persicae) | percent effect (mortality or growth inhibition) at 200 ppm (Plutella xylostella)

Cc1cc(C2=NO[C@@](c3cc(Cl)c(F)c(Cl)c3)(C(F)(F)F)C2)ccc1C(=O)N[C@H]1CON(S(=O)(=O)N2CCC2)C1 [Compound A148]
≥ 80%: mortality at 200 ppm (Thrips tabaci) | percent effect (mortality or growth inhibition) at 200 ppm (Euschistus heros) | percent effect (mortality or growth inhibition) at 200 ppm (Diabrotica balteata) | mortality at 200 ppm (Tetranychus urticae) | mortality at 200 ppm (Spodoptera littoralis) | mortality at 200 ppm (Myzus persicae) | percent effect (mortality or growth inhibition) at 200 ppm (Plutella xylostella)

Cc1cc(C2=NO[C@](c3cc(Cl)cc(C(F)(F)F)c3)(C(F)(F)F)C2)ccc1C(=O)N[C@H]1CON(S(=O)(=O)CF)C1 [Compound A218]
≥ 80%: mortality at 200 ppm (Thrips tabaci) | percent effect (mortality or growth inhibition) at 200 ppm (Euschistus heros) | percent effect (mortality or growth inhibition) at 200 ppm (Diabrotica balteata) | mortality at 200 ppm (Tetranychus urticae) | mortality at 200 ppm (Spodoptera littoralis) | mortality at 200 ppm (Myzus persicae) | percent effect (mortality or growth inhibition) at 200 ppm (Plutella xylostella)

Cc1cc(C2=NO[C@@](c3cccc(C(F)(F)F)n3)(C(F)(F)F)C2)ccc1C(=O)N[C@H]1CON(S(C)(=O)=O)C1 [Compound A215]
≥ 80%: mortality at 200 ppm (Thrips tabaci) | percent effect (mortality or growth inhibition) at 200 ppm (Euschistus heros) | percent effect (mortality or growth inhibition) at 200 ppm (Diabrotica balteata) | mortality at 200 ppm (Tetranychus urticae) | mortality at 200 ppm (Spodoptera littoralis) | mortality at 200 ppm (Myzus persicae) | percent effect (mortality or growth inhibition) at 200 ppm (Plutella xylostella)

CC(=O)N(C)S(=O)(=O)N1CC(NC(=O)c2ccc(C3=NO[C@@](c4cc(Cl)c(F)c(Cl)c4)(C(F)(F)F)C3)cc2C)CO1 (some centres unmarked) [Compound A162]
≥ 80%: mortality at 200 ppm (Thrips tabaci) | percent effect (mortality or growth inhibition) at 200 ppm (Euschistus heros) | percent effect (mortality or growth inhibition) at 200 ppm (Diabrotica balteata) | mortality at 200 ppm (Tetranychus urticae) | mortality at 200 ppm (Spodoptera littoralis) | mortality at 200 ppm (Myzus persicae) | percent effect (mortality or growth inhibition) at 200 ppm (Plutella xylostella)

Cc1cc(C2=NO[C@@](c3cc(Cl)c(F)c(Cl)c3)(C(F)(F)F)C2)ccc1C(=O)N[C@@H]1CON(S(=O)(=O)N2CCOCC2)C1 [Compound A188, 4-[(5S)-5-(3,5-dichloro-4-fluorophenyl)-5-(trifluoromethyl)-4H-1,2-oxazol-3-yl]-2-methyl-N-[(4S)-2-morpholin-4-ylsulfonyl-1,2-oxazolidin-4-yl]benzamide]
≥ 80%: mortality at 200 ppm (Thrips tabaci) | percent effect (mortality or growth inhibition) at 200 ppm (Euschistus heros) | percent effect (mortality or growth inhibition) at 200 ppm (Diabrotica balteata) | mortality at 200 ppm (Tetranychus urticae) | mortality at 200 ppm (Spodoptera littoralis) | mortality at 200 ppm (Myzus persicae) | percent effect (mortality or growth inhibition) at 200 ppm (Plutella xylostella)
